Measured values as given in article PMC7504721, “Targeting the Initiator Protease of the Classical Pathway of Complement Using Fragment-Based Drug Discovery” (Molecules, 2020).
Like-named read-outs stand apart in the source and are kept apart here.

Tested on: classical pathway
Experiment: Classical pathway-specific ELISA-based complement inhibition assay (C4b deposition, IgM-coated plate, human serum)
Type: biochemical
Conditions: for IC50: non-linear regression; for inhibition of classical pathway (C4b deposition) relative to non-binding control compound: single 500 µM concentration, triplicate, 1% normal human serum, unpaired t-test p < 0.05
Method: To carry out classical pathway ELISA-based inhibition assays, IgM was dissolved in coating buffer (100 mM Na2CO3/NaHCO3, pH 9.6) to a final concentration of 3 µg/mL and was dispensed into 96-well plates at 100 µL per well. Mannan was dissolved to 2 µg/mL and lipopolysaccharides (LPS) were dissolved to 10 µg/mL in coating buffer for use in lectin and alternative pathway inhibition assays, respectively. Immobilization was allowed to proceed overnight at 25 °C. The immobilization reagent was then removed, followed by three washes in washing buffer (50 mM Tris pH 8.0, 200 mM NaCl, 0.05% (v/v) Tween-20), and blocked using 100 µL of 1% (w/v) bovine serum albumin in PBS-T for 1 h at 37°C. Blocking buffer was removed and plates were washed three times in washing buffer. Next, 500 µM of each compound, 5% (v/v) DMSO, and 1% (v/v) normal human serum (Innovative Research) (final concentrations) were dissolved in classical/lectin pathway ELISA buffer (20 mM HEPES (pH 7.3), 0.1% (w/v) gelatin, 140 mM NaCl, 2 mM CaCl2, 0.5 mM MgCl2) and added to the IgM-coated plate for 1 h at 37 °C. For the lectin pathway-specific ELISAs shown in Figure 5D, we used C1q-depleted serum from CompTech at 2% (v/v) and thus the classical pathway assays for this analysis were also performed using serum from CompTech at 2% (v/v). For the alternative pathway, 20% (v/v) normal human serum (CompTech) (final concentration) and alternative pathway ELISA buffer (20 mM HEPES, (pH 7.5), 0.1% (w/v) gelatin, 140 mM NaCl, 2 mM CaCl2, 0.5 mM MgCl2) were used in place of classical/lectin pathway ELISA buffer. Plates were then washed three times in wash buffer and each well was filled with 100 µL of α-C4 (HYB 162-02, Santa Cruz Biotechnology) diluted 1:300 for classical and lectin pathway assays and 100 µL of C3b (WM-1, Sigma) diluted 1:300 for alternative pathway assays. Plates were again incubated at 37 °C for 1 h, washed three times, filled with 100 µL of HRP-conjugated goat-α-mouse secondary antibody (diluted 1:3000) (Thermo Scientific, Waltham, MA, USA), and rocked gently for 1 h at 25 °C. After three more washes, 50 µl of substrate (1-step Ultra TMB, Thermo Scientific, Waltham, MA, USA) was added to each well and rocked for 15 min in the dark at 25 °C. The reaction was stopped with 50 µL of 0.16 M sulfuric acid, and the plate was read at 450 nm using an EnSight multimode plate reader (Perkin-Elmer). Each column contained a positive control for full complement activity (5% (v/v) blank DMSO with 1% (v/v) serum) and a negative control for no complement activity (5% (v/v) blank DMSO and no serum). Positive controls (1% (v/v) serum, no inhibitor) were defined as 100% C4b or C3b signal whereas negative controls (no serum) were defined as 0% C4b or C3b signal for each column. Compounds that inhibited complement deposition relative to the control were then evaluated using the same assay setup across a two-fold variable concentration series for each compound (7.8–500 µM). […] All experiments were performed no less than three times.
Statistical analyses were performed using GraphPad Prism version 8. For complement inhibition assays, measures of statistical significance for single-dose experiments were assessed using unpaired Student’s t-tests compared to no inhibitor controls (pathway ELISAs) or non-binding control compounds (classical pathway ELISA). Statistical significance was defined as p < 0.05. Calculation of IC50 values from dose-dependent complement assays were obtained by non-linear regression analysis using a using an inhibitor vs. response model and with 95% confidence intervals reported. For non-linear regression analyses, the top and bottom of each curve were constrained to 100 and 0, respectively.

[1] = dose-response 7.8–500 µM, top and bottom constrained to 100 and 0, read-out: IC50, classical pathway-specific ELISA
[2] = n = 9 (CMP-1611), n = 7 (CMP-1696), read-out: 95% confidence interval of IC50, classical pathway-specific ELISA

Compound	IC50 [1] [µM]	IC50 [2] [µM]	inhibition of classical pathway (C4b deposition) relative to non-binding control compound
COCc1nc(-c2ccc(OC3CNC3)cc2)no1 [CMP-1696]	520	410 to 680	statistically significant inhibitory activity
CN(C)c1cc(N2CCCC(N)C2)ncn1 (stereo not drawn) [CMP-1611]	660	560 to 790	statistically significant inhibitory activity
